Assay results taken from ChEMBL document CHEMBL1909046, “DrugMatrix in vitro pharmacology data”.

How the values were obtained:
[1] = target: T1, Substance-K receptor (Homo sapiens, UniProt P21452); format: cell membranes, CHO, Membrane; conditions: cho; further: in other assays of this panel Not Active means under 50% inhibition at 10 µM
T1 sequence (P21452 whole entry): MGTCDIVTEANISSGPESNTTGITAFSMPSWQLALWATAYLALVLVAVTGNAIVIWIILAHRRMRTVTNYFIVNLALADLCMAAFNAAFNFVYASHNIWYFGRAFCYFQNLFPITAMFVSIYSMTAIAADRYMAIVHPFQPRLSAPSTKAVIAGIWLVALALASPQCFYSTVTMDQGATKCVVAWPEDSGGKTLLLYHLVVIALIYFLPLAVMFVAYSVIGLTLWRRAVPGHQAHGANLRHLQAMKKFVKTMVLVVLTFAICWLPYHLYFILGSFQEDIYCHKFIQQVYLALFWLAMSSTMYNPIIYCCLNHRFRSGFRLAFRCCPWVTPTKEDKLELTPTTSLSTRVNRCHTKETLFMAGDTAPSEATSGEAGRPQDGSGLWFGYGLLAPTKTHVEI

[2] = target: T2, Neutrophil elastase (Homo sapiens, UniProt P08246); format: tissue-based;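 further: inhibition of neutrophil elastase enzyme activity, measured with a p-nitroanilide-linked peptide substrate; in other assays of this panel Not Active means under 50% inhibition at 10 µM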
T2 sequence (P08246 whole entry): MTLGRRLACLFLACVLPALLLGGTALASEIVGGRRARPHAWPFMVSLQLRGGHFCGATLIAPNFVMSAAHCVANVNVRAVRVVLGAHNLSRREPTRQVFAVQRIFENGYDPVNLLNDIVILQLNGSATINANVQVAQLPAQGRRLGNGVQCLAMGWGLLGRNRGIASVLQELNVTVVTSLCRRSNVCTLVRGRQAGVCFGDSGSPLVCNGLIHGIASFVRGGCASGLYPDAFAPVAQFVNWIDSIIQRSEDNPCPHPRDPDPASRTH

[3] = DRUGMATRIX: Serotonin (5-Hydroxytryptamine) 5-HT3 radioligand binding (ligand: [3H] GR-65630); format: cell membranes, Membrane; conditions: hek293; Not Active = under 50% inhibition at 10 µM
[4] = DRUGMATRIX: Calcium Channel Type L, Benzothiazepine radioligand binding (ligand: [3H] Diltiazem); format: cell membranes, Rattus norvegicus, Wistar, Brain, Membrane; conditions: Not Active = under 50% inhibition at 10 µM
[5] = target: T3, Leukotriene C4 synthase (Cavia porcellus, UniProt A6XA80); format: tissue-based, Lung;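 further: enzyme inhibition assay of leukotriene C4 synthase, using LTA4 as the substrate; in other assays of this panel Not Active means under 50% inhibition at 10 µM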
T3 sequence (A6XA80 whole entry): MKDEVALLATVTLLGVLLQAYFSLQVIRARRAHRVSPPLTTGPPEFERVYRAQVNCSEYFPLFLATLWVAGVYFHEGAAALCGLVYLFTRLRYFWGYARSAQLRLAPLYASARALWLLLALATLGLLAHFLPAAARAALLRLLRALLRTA

[6] = target: Voltage-gated inwardly rectifying potassium channel KCNH2 (Homo sapiens, UniProt Q12809); conditions: hek293; further: in other assays of this panel Not Active means under 50% inhibition at 10 µM
Chain of Voltage-gated inwardly rectifying potassium channel KCNH2 (Q12809 whole entry): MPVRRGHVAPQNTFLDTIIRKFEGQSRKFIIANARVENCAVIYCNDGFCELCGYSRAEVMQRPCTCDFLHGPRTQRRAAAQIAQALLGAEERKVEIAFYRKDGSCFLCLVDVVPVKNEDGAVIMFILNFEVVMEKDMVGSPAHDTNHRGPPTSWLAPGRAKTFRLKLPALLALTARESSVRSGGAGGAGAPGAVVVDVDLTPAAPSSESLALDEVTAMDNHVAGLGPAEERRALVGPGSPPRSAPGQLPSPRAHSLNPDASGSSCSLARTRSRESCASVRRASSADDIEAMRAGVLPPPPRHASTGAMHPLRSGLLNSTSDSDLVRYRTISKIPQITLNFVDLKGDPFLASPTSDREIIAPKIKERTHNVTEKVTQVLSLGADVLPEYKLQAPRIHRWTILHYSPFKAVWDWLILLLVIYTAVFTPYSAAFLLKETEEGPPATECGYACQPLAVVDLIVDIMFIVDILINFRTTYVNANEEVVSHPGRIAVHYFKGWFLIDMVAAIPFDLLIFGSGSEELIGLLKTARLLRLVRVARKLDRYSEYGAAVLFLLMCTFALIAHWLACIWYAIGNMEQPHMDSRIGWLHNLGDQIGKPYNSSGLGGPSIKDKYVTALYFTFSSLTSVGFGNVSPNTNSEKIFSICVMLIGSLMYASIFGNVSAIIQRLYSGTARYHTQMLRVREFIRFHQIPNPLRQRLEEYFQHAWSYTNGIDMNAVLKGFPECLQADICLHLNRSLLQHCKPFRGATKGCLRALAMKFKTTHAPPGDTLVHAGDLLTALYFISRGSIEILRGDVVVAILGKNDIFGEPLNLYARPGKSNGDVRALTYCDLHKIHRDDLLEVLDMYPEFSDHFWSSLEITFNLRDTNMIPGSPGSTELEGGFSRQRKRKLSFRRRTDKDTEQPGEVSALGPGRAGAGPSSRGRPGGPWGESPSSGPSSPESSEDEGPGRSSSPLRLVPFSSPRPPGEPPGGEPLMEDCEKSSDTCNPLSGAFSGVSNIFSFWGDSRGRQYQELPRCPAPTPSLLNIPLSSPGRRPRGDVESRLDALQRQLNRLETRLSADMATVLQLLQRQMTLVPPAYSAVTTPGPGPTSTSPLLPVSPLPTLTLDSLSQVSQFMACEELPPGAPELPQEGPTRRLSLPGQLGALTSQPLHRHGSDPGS

Compound | IC50 [1] | IC50 [2] | IC50 [3] | Ki [3] | IC50 [4] | Ki [4] | IC50 [5] | IC50 [6] | Ki [6] | IC50 ([4]; read-out: IC50) | Ki ([4]; read-out: Ki) | Ki [1] | Ki [2] | Ki [5]
C[C@]12CC[C@@H]3c4ccc(O)cc4CC[C@H]3[C@@H]1CCC2=O [ESTRONE] | Not Active | Not Active | Not Active | Not Active | Not Active | Not Active | Not Active | Not Active | Not Active | – | – | – | – | –
OC(Cn1cncn1)(Cn1cncn1)c1ccc(F)cc1F [FLUCONAZOLE] | Not Active | Not Active | Not Active | Not Active | Not Active | Not Active | Not Active | Not Active | Not Active | – | – | – | – | –
CC(C)C(=O)Nc1ccc([N+](=O)[O-])c(C(F)(F)F)c1 [FLUTAMIDE] | Not Active | Not Active | Not Active | Not Active | Not Active | Not Active | Not Active | Not Active | Not Active | – | – | – | – | –
CC1(C)O[C@@H]2C[C@H]3[C@@H]4CCC5=CC(=O)CC[C@]5(C)[C@@]4(F)[C@@H](O)C[C@]3(C)[C@]2(C(=O)CCl)O1 [HALCINONIDE] | Not Active | Not Active | Not Active | Not Active | Not Active | Not Active | Not Active | Not Active | Not Active | – | – | – | – | –
O=c1[nH]c(=O)n([C@H]2C[C@H](O)[C@@H](CO)O2)cc1I [IDOXURIDINE] | Not Active | Not Active | Not Active | Not Active | Not Active | Not Active | Not Active | Not Active | Not Active | – | – | – | – | –
CC1Cc2ccccc2N1NC(=O)c1ccc(Cl)c(S(N)(=O)=O)c1 (stereo unspecified) [INDAPAMIDE] | Not Active | Not Active | Not Active | Not Active | Not Active | Not Active | Not Active | Not Active | Not Active | – | – | – | – | –
Nc1nc(N)nc(-c2cc(Cl)ccc2Cl)n1.O=C(O)/C=C\C(=O)O [IRSOGLADINE MALEATE] | Not Active | Not Active | Not Active | Not Active | Not Active | Not Active | Not Active | Not Active | Not Active | – | – | – | – | –
CCC(C)n1ncn(-c2ccc(N3CCN(c4ccc(OCC5COC(Cn6cncn6)(c6ccc(Cl)cc6Cl)O5)cc4)CC3)cc2)c1=O (stereo unspecified) [ITRACONAZOLE] | Not Active | Not Active | Not Active | Not Active | Not Active | Not Active | Not Active | Not Active | Not Active | – | – | – | – | –
CCCCN1CCCC[C@H]1C(=O)Nc1c(C)cccc1C [LEVOBUPIVACAINE] | Not Active | Not Active | Not Active | Not Active | Not Active | Not Active | Not Active | Not Active | Not Active | – | – | – | – | –
CCCCc1nc(Cl)c(CO)n1Cc1ccc(-c2ccccc2-c2nnn[nH]2)cc1 [LOSARTAN] | Not Active | Not Active | Not Active | Not Active | Not Active | Not Active | Not Active | Not Active | Not Active | – | – | – | – | –
Sc1ncnc2nc[nH]c12 [MERCAPTOPURINE ANHYDROUS] | Not Active | Not Active | Not Active | Not Active | Not Active | Not Active | Not Active | Not Active | Not Active | – | – | – | – | –
C[C@](N)(Cc1ccc(O)c(O)c1)C(=O)O [METHYLDOPA] | Not Active | Not Active | Not Active | Not Active | Not Active | Not Active | Not Active | Not Active | Not Active | – | – | – | – | –
C[C@]12CCC(=O)C=C1CC[C@@H]1[C@@H]2CC[C@@]2(C)[C@H]1CC[C@]2(C)O [METHYLTESTOSTERONE] | Not Active | Not Active | Not Active | Not Active | Not Active | Not Active | Not Active | Not Active | Not Active | – | – | – | – | –
Cc1ccccc1N1C(=O)c2cc(S(N)(=O)=O)c(Cl)cc2NC1C (stereo unspecified) [METOLAZONE] | Not Active | Not Active | Not Active | Not Active | Not Active | Not Active | Not Active | Not Active | Not Active | – | – | – | – | –
COCCc1ccc(OCC(O)CNC(C)C)cc1 (stereo unspecified) [METOPROLOL] | Not Active | Not Active | Not Active | Not Active | Not Active | Not Active | Not Active | Not Active | Not Active | – | – | – | – | –
CCn1cc(C(=O)O)c(=O)c2cc(F)c(N3CCNCC3)cc21 [NORFLOXACIN] | Not Active | Not Active | Not Active | Not Active | Not Active | Not Active | Not Active | Not Active | Not Active | – | – | – | – | –
NC1=NC(=O)C(c2ccccc2)O1 (stereo unspecified) [PEMOLINE] | Not Active | Not Active | Not Active | Not Active | Not Active | Not Active | Not Active | Not Active | Not Active | – | – | – | – | –
Nc1nc2c(ncn2CCC(CO)CO)c(=O)[nH]1 [PENCICLOVIR] | Not Active | Not Active | Not Active | Not Active | Not Active | Not Active | Not Active | Not Active | Not Active | – | – | – | – | –
C=C(C)C1(O)OC(=O)C=C1OC (stereo unspecified) [PENICILLIC ACID] | Not Active | Not Active | Not Active | Not Active | Not Active | Not Active | Not Active | Not Active | Not Active | – | – | – | – | –
CC1(C)S[C@@H]2[C@H](NC(=O)Cc3ccccc3)C(=O)N2[C@H]1C(=O)O [PENICILLIN G] | Not Active | Not Active | Not Active | Not Active | Not Active | Not Active | Not Active | Not Active | Not Active | – | – | – | – | –
CCCN1C[C@H](CSC)C[C@@H]2c3cccc4[nH]cc(c34)C[C@H]21 [PERGOLIDE] | Not Active | Not Active | Not Active | Not Active | – | – | Not Active | Not Active | Not Active | 3.3 µM | 2.93 µM | – | – | –
C1CCC(C(CC2CCCCN2)C2CCCCC2)CC1 (stereo unspecified) [PERHEXILINE] | Not Active | Not Active | Not Active | Not Active | – | – | Not Active | Not Active | Not Active | 1.06 µM | 0.939 µM | – | – | –
CCOc1ccc(NC(C)=O)cc1 [PHENACETIN] | Not Active | Not Active | Not Active | Not Active | Not Active | Not Active | Not Active | Not Active | Not Active | – | – | – | – | –
CNNCc1ccc(C(=O)NC(C)C)cc1 [PROCARBAZINE] | Not Active | Not Active | Not Active | Not Active | Not Active | Not Active | Not Active | Not Active | Not Active | – | – | – | – | –
CN(C)CCCN1c2ccccc2Sc2ccccc21 [PROMAZINE] | Not Active | Not Active | Not Active | Not Active | – | – | Not Active | Not Active | Not Active | 3.22 µM | 2.86 µM | – | – | –
CC(O)CO (stereo unspecified) [PROPYLENE GLYCOL] | Not Active | Not Active | Not Active | Not Active | Not Active | Not Active | Not Active | Not Active | Not Active | – | – | – | – | –
CADMIUM ACETATE | Not Active | Not Active | Not Active | Not Active | Not Active | Not Active | Not Active | Not Active | Not Active | – | – | Not Active | Not Active | Not Active
